From patent publication US20100034867A1, “DRUG DELIVERY COATING FOR USE WITH A MEDICAL DEVICE AND METHODS OF TREATING VASCULAR INJURY” (ATRIUM MEDICAL CORPORATION, priority 2005, published 2010)
Read-outs that look alike come from different tables or passages of the source.

Columns and labels:
rabbit illiac arteries [1] = settings: in vivo, 28 days
rabbit illiac arteries [2] = assay: Methylprednisolone/Cilostazol/Paclitaxel/Taxus study: stents implanted in rabbit iliac arteries for 28 days, histomorphic and histopathologic analyses; settings: for reduction in neointima (in words): coated stents; for EEL Area / IEL Area / Intimal Area / Lumen Area / Stenosis: ALPHA-3 coated Atrium Flyer stent, mean ± SD
rabbit illiac arteries [3] = settings: in vivo
Method: The Atrium Flyer is compared with bare metal stents, the Atrium Flyer coated with ALPHA-3 without drugs, and Cypher™ drug eluting stent. Histomorphic and histopathologic analyses are then performed.

rabbit's iliac vessel = assay: Rapamycin drug eluting stents in rabbit iliac vessel (inflammation, overlapping stents); type: in vivo
Description: The inventors postulate, based on these animal study results, that one consequence of these types of drugs is retarded endothelial cell coverage, and that current drug eluting stents promote more chronic inflammation than would normally be present with a non drug eluting bare metal stent.

rabbit iliacs = assay: Local delivery of calcineurin inhibiting compounds after vascular injury in rabbit iliacs; type: in vivo
Description: Studies in rabbit iliacs following vascular injury conducted by and/or on behalf of the inventors show the benefits of using calcineurin inhibiting compounds like Tacrolimus, Cyclosporin A (CsA) and Cyclosporin derivatives, in small animals like the rat, and in rabbits. […] Such vascular injury and sirolimus medicated inflammation can be characterized as having excessive giant cell formation and esinophil propagation.

Structure (SMILES): O=C1CCc2cc(OCCCCc3nnnn3C3CCCCC3)ccc2N1 [Cilostazol]
- Fibrin Score (rabbit illiac arteries [1]): 0
- reduction in neointima (in words) (rabbit illiac arteries [2]): No reduction in neointima

Structure (SMILES): C[C@H]1C[C@@H]2[C@H]([C@@H](O)C[C@@]3(C)[C@H]2CC[C@]3(O)C(=O)CO)[C@@]2(C)C=CC(=O)C=C12 [Methylprednilsolone]
- EEL Area (rabbit illiac arteries [2]; high dose): 5.50 ± 0.26 mm^2
- IEL Area (rabbit illiac arteries [2]; high dose): 5.25 ± 0.24 mm^2
- Intimal Area (rabbit illiac arteries [2]; high dose): 1.165 ± 0.231 mm^2
- Lumen Area (rabbit illiac arteries [2]; high dose): 4.08 ± 0.21 mm^2
- Stenosis (rabbit illiac arteries [2]; high dose): 22.2 ± 1.4%
- EEL Area (rabbit illiac arteries [2]; low dose): 5.90 ± 0.92 mm^2
- IEL Area (rabbit illiac arteries [2]; low dose): 5.62 ± 0.90 mm^2
- Intimal Area (rabbit illiac arteries [2]; low dose): 1.054 ± 0.923 mm^2
- Lumen Area (rabbit illiac arteries [2]; low dose): 4.42 ± 0.82 mm^2
- Stenosis (rabbit illiac arteries [2]; low dose): 21.5 ± 4.7%
- EEL Area (rabbit illiac arteries [2]; mid-dose): 5.68 ± 0.34 mm^2
- IEL Area (rabbit illiac arteries [2]; mid-dose): 5.40 ± 0.30 mm^2
- Intimal Area (rabbit illiac arteries [2]; mid-dose): 1.247 ± 0.136 mm^2
- Lumen Area (rabbit illiac arteries [2]; mid-dose): 4.16 ± 0.40 mm^2
- Stenosis (rabbit illiac arteries [2]; mid-dose): 23.1 ± 2.2%
- reduction in neointima (in words) (rabbit illiac arteries [2]): No reduction in neointima

Structure (SMILES): CC(=O)O[C@H]1C(=O)[C@@]2(C)[C@H]([C@H](OC(=O)c3ccccc3)[C@]3(O)C[C@H](OC(=O)[C@H](O)[C@@H](NC(=O)c4ccccc4)c4ccccc4)C(C)=C1C3(C)C)[C@]1(OC(C)=O)CO[C@@H]1C[C@@H]2O [Paclitaxel]
- Fibrin Score (rabbit illiac arteries [1]): 0
- arterial healing compared with Taxus Express (rabbit illiac arteries [1]): (greater) arterial healing at 28 days compared with Taxus™ Express
- in-stent neointimal growth (in words) (rabbit illiac arteries [2]; Atrium stents, high dose): suppresses in-stent neointimal growth at 28 days similarly to the Taxus™ Express stent

Structure (SMILES): CO[C@H]1C[C@@H]2CC[C@@H](C)[C@@](O)(O2)C(=O)C(=O)N2CCCC[C@H]2C(=O)O[C@H]([C@H](C)C[C@@H]2CC[C@@H](O)[C@H](OC)C2)CC(=O)[C@H](C)/C=C(\C)[C@@H](O)[C@@H](OC)C(=O)[C@H](C)C[C@H](C)/C=C/C=C/C=C/1C [Sirolimus]
- tolerability of the coated stent (rabbit illiac arteries [3]): well tolerated, producing no adverse reaction
- inflammatory response around the drug eluting stent (rabbit's iliac vessel; rabbit iliacs): presence of numerous giant cells and esinophils
- inflammation induced by the overlapping drug coating (rabbit's iliac vessel; two separate drug eluting stents overlapping in rabbit iliac vessel): increases nearly two fold
- arterial healing compared with Taxus Express (rabbit illiac arteries [2]; Atrium stents, high dose): (greater) arterial healing at 28 days compared with Taxus™ Express

Structure (SMILES): C=CC[C@@H]1/C=C(\C)C[C@H](C)C[C@H](OC)[C@H]2O[C@@](O)(C(=O)C(=O)N3CCCC[C@H]3C(=O)O[C@H](/C(C)=C/[C@@H]3CC[C@@H](O)[C@H](OC)C3)[C@H](C)[C@@H](O)CC1=O)[C@H](C)C[C@@H]2OC [Tacrolimus]
- inflammation following vascular injury (rabbit iliacs): effectively reduce inflammation following vascular injury
